The text below walks through data of patent US20200165257A1, “INHIBITORS OF PHOSPHOINOSITIDE 3-KINASE AND HISTONE DEACETYLASE FOR TREATMENT OF CANCER” (THE UNITED STATES OF AMERICA, AS REPRESENTED BY THE …, priority 2017, published 2020).

In assay [1] the test system is Ovarian Cell Line OVCAR-3. In words: cells. Conditions: Homo sapiens, OVCAR-3, read-out: inhibition of proliferation.
Assay [2] concerns Breast Cancer Cell Line MDA-MB-468. In words: cells. Conditions: Homo sapiens, MDA-MB-468, read-out: inhibition of proliferation.
Assay [3] concerns Leukemia Cell Line CCRF-CEM. In words: cells. It counts as cell-based. Conditions: Homo sapiens, single dose, 10 uM compound concentration, read-out: inhibition of proliferation.
The subject of assay [4] is Ovarian Cell Line NCI/ADR-RES. In words: cells. The assay is classed as cell-based. Conditions: Homo sapiens, single dose, 10 uM compound concentration, read-out: inhibition of proliferation.
For the next assay, the target named is T1, HDAC6 (Homo sapiens, UniProt Q9UBN7).
T1 sequence (Q9UBN7 1-1215): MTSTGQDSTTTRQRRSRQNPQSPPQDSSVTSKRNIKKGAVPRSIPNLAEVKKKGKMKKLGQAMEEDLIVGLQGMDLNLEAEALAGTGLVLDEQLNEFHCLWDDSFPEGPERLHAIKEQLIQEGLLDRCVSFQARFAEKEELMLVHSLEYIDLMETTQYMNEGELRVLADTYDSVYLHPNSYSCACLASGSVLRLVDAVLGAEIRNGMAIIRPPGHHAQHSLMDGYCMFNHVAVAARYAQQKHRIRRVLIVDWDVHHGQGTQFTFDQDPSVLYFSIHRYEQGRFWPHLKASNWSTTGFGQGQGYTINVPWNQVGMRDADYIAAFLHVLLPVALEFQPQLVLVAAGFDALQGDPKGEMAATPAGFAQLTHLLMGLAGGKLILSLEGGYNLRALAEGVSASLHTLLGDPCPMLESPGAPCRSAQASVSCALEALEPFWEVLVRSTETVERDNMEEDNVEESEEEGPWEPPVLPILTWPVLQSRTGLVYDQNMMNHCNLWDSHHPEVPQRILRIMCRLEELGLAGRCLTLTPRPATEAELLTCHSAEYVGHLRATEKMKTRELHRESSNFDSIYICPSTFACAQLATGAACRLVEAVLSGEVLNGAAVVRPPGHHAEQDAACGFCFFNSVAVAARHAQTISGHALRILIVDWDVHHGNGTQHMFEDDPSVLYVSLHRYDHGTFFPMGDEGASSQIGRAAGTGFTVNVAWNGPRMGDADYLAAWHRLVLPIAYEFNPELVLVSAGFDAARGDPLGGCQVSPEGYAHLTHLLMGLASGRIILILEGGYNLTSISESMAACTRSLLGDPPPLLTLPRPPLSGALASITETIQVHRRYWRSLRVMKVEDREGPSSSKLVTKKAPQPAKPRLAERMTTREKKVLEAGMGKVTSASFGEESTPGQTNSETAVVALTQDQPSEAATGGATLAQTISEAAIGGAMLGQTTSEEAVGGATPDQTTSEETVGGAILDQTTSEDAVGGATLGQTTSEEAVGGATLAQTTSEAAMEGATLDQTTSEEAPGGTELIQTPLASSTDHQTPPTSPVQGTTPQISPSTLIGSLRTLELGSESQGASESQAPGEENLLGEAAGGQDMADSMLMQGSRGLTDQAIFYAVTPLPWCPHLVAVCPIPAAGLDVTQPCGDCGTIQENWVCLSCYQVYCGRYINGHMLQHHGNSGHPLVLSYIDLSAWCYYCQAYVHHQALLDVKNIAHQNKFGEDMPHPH
In words: HDAC Fluorescent Activity Assay. The assay is classed as biochemical. Conditions: symbols ++ / +; read-out: HDAC6 Inhibition Activity (IC50 class).

The test system of assay [5] is Leukemia Cell Line RPMI-8226. The assay is classed as cell-based. Conditions: Homo sapiens; RPMI-8226; single dose, 10 uM compound concentration; read-out: inhibition of proliferation.
Assay [6] deals with Ovarian Cell Line OVCAR-8. In words: cells. Conditions: Homo sapiens; OVCAR-8; single dose, 10 uM compound concentration; read-out: inhibition of proliferation. It counts as cell-based.
In a further assay the test system is Ovarian Cell Line IGROV1. The assay is classed as cell-based. Conditions: Homo sapiens, IGROV-1; IGROV1; single dose, 10 uM compound concentration; read-out: inhibition of proliferation.
Assay [7] concerns Breast Cancer Cell Line BT-549. In words: cells. It counts as cell-based. Conditions: Homo sapiens; BT-549; single dose, 10 uM compound concentration; read-out: inhibition of proliferation.
A further assay has as its system Leukemia Cell Line SR. In words: cells. It counts as cell-based. Conditions: Homo sapiens; SR; single dose, 10 uM compound concentration; read-out: inhibition of proliferation.

SMILES strings stand for the structures. Bounds are passed on as bounds.

One may read the IC50 as the concentration that inhibits the measured activity by half. On to `CC[C@H](Nc1nc(N)nc(C)c1C#N)c1nc2cccc(CN(C)c3ncc(C(=O)NO)cn3)c2c(=O)n1-c1ccccc1` [LII, (S)-2-(((2-(1-((2-amino-5-cyano-6-methylpyrimidin-4-yl)amino)propyl)-4-oxo-3-phenyl-3,4-dihydroquinazolin-5-yl)methyl)(methyl)amino)-N-hydroxypyrimidine-5-carboxamide], for which the inhibition at 10 µM was above 50% in assay [1]; above 50% in [2]; above 50% in assay [3]; 25 to 50% in [4]; above 50% in assay [5]; above 50% in assay [6]. The inhibition at 10 µM (with Ovarian Cell Line IGROV1; in [7]; with Leukemia Cell Line SR) was above 50% throughout. Moreover, on HDAC6, the 50% inhibitory concentration (IC50) was below 0.1 µM.
